Measurements as given in article PMC12749626, “Expediting hit-to-lead progression in drug discovery through reaction prediction and multi-dimensional optimization” (Nature Communications, 2025).
In brackets after ≈: the same amount, converted by molar mass.

Legend:
GLYCINE REC. = settings: 10 uM; n=2
GABA-A (BENZ[…]) = settings: 10 uM; n=2
ABCB1 (MDR1, human P-gp) = ABCB1 (MDR1, human P-gp) (Homo sapiens, UniProt P08183); assay: P-glycoprotein (P-gp) assay in LLC-PK1 cells transfected with ABCB1; settings: for Papp A→B: human, LLC-PK1
ABCB1 (MDR1, human P-gp), sequence (P08183 whole entry): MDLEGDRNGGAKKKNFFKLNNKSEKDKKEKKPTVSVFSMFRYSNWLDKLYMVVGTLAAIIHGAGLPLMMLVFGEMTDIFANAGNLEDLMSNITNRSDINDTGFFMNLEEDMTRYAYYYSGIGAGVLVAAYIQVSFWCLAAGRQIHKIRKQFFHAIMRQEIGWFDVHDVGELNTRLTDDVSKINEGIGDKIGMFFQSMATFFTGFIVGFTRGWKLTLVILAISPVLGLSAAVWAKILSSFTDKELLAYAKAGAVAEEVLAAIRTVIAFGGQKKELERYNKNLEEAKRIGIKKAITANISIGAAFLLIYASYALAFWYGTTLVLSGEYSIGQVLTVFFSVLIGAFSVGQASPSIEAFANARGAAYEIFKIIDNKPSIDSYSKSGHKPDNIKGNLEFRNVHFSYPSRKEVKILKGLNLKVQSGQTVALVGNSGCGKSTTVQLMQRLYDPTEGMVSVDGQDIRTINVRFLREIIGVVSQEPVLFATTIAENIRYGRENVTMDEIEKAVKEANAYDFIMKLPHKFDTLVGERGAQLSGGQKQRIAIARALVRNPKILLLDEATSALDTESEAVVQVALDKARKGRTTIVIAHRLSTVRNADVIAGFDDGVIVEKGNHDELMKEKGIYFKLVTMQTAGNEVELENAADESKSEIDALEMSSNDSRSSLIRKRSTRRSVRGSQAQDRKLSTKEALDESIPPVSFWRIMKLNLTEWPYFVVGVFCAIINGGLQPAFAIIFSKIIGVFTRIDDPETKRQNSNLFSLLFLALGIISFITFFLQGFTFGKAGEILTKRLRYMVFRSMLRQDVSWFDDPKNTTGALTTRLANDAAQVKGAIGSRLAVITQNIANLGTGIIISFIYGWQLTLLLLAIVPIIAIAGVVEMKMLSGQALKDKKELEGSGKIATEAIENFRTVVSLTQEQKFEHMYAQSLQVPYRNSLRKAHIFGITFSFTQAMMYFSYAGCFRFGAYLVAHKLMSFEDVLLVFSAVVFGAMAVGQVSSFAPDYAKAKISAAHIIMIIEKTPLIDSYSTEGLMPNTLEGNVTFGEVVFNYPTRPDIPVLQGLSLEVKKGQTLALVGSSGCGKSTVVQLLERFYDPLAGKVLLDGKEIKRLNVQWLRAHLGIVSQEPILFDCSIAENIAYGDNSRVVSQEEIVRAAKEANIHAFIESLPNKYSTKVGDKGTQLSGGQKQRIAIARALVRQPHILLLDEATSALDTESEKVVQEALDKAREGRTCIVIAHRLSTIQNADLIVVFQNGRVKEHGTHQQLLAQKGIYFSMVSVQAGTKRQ

[1] = Parallel Artificial Membrane Permeability (PAMPA); settings: for Papp at 18 h, 150 µM: PAMPA, pH 6
Solubility in 0.05M PO4- = assay type: physicochemical; settings: for solubility: 0.05 M phosphate buffer, aqueous buffer
μ OPIOID REC. = μ OPIOID REC. (Homo sapiens, UniProt P35372); assay: biochemical; settings: read-out: μ OPIOID REC. percent activity or inhibition compared to the assay reference
μ OPIOID REC., sequence (P35372 whole entry): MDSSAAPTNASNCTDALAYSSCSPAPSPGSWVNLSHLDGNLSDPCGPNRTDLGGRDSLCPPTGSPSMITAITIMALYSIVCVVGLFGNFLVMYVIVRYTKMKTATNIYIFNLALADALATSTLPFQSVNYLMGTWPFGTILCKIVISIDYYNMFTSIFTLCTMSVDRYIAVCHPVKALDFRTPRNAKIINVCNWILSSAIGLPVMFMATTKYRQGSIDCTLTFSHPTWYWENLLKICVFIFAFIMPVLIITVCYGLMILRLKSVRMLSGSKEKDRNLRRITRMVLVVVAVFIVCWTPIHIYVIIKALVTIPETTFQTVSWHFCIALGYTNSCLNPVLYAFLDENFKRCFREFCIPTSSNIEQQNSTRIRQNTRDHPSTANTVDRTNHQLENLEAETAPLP

SEROTONIN TRANSPORTER = SEROTONIN TRANSPORTER (Homo sapiens, UniProt P31645); assay: biochemical; settings: read-out: SEROTONIN TRANSPORTER percent activity or inhibition compared to the assay reference
α2A-ADRENOCEPTOR = α2A-ADRENOCEPTOR (Homo sapiens, UniProt P08913); assay: biochemical; settings: read-out: α2A-ADRENOCEPTOR percent activity or inhibition compared to the assay reference
UniProt P08913, sequence (P08913 whole entry): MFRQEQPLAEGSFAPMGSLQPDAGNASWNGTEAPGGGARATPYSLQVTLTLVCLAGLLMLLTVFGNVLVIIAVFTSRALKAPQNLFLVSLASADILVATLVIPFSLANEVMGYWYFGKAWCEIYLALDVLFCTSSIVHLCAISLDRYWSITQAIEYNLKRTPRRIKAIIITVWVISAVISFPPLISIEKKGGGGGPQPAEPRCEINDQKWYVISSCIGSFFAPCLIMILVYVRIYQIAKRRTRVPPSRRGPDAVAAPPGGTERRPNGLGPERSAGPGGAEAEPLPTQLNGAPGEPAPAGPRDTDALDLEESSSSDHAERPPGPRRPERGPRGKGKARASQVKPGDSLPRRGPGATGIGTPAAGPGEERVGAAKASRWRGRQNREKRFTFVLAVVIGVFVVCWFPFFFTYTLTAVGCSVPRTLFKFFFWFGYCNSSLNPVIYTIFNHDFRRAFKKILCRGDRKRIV

PROSTAGLANDIN F REC. = PROSTAGLANDIN F REC. (Homo sapiens, UniProt P43088); assay: biochemical; settings: read-out: PROSTAGLANDIN F REC. percent activity or inhibition compared to the assay reference
UniProt P43088, sequence (P43088 whole entry): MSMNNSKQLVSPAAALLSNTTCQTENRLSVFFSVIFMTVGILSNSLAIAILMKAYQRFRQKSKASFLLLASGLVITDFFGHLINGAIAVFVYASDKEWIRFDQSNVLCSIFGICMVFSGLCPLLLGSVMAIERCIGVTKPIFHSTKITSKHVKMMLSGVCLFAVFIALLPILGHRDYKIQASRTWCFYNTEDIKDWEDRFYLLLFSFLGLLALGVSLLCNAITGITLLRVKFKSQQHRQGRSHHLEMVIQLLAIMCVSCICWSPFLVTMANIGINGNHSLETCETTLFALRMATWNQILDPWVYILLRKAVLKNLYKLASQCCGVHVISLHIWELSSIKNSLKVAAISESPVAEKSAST

κ OPIOID REC. = κ OPIOID REC. (Homo sapiens, UniProt P41145); assay: biochemical; settings: read-out: κ OPIOID REC. percent activity or inhibition compared to the assay reference
α1A-ADRENOCEPTOR = α1A-ADRENOCEPTOR (Homo sapiens, UniProt P35348); assay: biochemical; settings: read-out: α1A-ADRENOCEPTOR percent activity or inhibition compared to the assay reference
UniProt P35348, sequence (P35348 whole entry): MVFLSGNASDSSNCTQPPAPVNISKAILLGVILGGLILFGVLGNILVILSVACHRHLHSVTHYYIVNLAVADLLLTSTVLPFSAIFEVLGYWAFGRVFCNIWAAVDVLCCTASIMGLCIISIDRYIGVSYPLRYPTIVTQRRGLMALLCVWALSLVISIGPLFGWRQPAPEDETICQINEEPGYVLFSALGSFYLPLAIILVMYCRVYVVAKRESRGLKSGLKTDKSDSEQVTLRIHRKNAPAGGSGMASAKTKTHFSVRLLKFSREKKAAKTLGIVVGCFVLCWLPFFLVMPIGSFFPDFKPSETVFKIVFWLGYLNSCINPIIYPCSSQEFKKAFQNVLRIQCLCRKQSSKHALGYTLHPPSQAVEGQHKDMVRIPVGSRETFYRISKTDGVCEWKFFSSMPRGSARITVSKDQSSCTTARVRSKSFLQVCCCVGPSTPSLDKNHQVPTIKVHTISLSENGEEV

CHOLECYSTOKININ 1 REC. = CHOLECYSTOKININ 1 REC. (Homo sapiens, UniProt P32238); assay: biochemical; settings: read-out: CHOLECYSTOKININ 1 REC. percent activity or inhibition compared to the assay reference
β1-ADRENOCEPTOR = β1-ADRENOCEPTOR (Homo sapiens, UniProt P08588); assay: biochemical; settings: read-out: β1-ADRENOCEPTOR percent activity or inhibition compared to the assay reference
5HT3 = 5HT3 (Homo sapiens, UniProt P46098); assay: biochemical; settings: read-out: 5HT3 percent activity or inhibition compared to the assay reference
HIV-1 PROTEASE = HIV-1 PROTEASE (Human immunodeficiency virus type 1 group M subtype B, UniProt P04585); assay: biochemical; settings: read-out: HIV-1 PROTEASE percent activity or inhibition compared to the assay reference
HISTAMINE H1 REC. = HISTAMINE H1 REC. (Homo sapiens, UniProt P35367); assay: biochemical; settings: read-out: HISTAMINE H1 REC. percent activity or inhibition compared to the assay reference
PHOSPHODIESTERASE 4D2 = PHOSPHODIESTERASE 4D2 (Homo sapiens, UniProt Q08499); assay: biochemical; settings: read-out: PHOSPHODIESTERASE 4D2 percent activity or inhibition compared to the assay reference
[2] = Microsomal clearance, human microsomes
DOPAMINE D1 REC. = DOPAMINE D1 REC. (Homo sapiens, UniProt P21728); assay: biochemical; settings: read-out: DOPAMINE D1 REC. percent activity or inhibition compared to the assay reference
DOPAMINE D1 REC., sequence (P21728 whole entry): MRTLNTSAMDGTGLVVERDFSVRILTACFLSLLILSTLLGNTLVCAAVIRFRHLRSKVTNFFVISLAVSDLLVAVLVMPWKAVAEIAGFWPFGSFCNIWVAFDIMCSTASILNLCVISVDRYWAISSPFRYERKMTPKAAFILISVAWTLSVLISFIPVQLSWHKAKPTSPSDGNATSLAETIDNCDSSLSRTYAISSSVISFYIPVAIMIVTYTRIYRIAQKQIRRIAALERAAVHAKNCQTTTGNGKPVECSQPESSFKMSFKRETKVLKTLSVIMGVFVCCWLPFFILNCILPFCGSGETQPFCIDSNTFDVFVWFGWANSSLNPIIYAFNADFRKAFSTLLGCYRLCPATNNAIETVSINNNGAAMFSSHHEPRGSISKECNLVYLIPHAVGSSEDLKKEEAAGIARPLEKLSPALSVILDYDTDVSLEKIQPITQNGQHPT

XANTHINE OXIDASE = XANTHINE OXIDASE (Bos taurus, UniProt P80457); assay: biochemical; settings: read-out: XANTHINE OXIDASE percent activity or inhibition compared to the assay reference
ESTROGEN REC. α = ESTROGEN REC. α (Homo sapiens, UniProt P03372); assay: biochemical; settings: read-out: ESTROGEN REC. α percent activity or inhibition compared to the assay reference
MONOAMINE OXIDASE-A = MONOAMINE OXIDASE-A (Homo sapiens, UniProt P21397); assay: biochemical; settings: read-out: MONOAMINE OXIDASE-A percent activity or inhibition compared to the assay reference
MONOAMINE OXIDASE-A, sequence (P21397 whole entry): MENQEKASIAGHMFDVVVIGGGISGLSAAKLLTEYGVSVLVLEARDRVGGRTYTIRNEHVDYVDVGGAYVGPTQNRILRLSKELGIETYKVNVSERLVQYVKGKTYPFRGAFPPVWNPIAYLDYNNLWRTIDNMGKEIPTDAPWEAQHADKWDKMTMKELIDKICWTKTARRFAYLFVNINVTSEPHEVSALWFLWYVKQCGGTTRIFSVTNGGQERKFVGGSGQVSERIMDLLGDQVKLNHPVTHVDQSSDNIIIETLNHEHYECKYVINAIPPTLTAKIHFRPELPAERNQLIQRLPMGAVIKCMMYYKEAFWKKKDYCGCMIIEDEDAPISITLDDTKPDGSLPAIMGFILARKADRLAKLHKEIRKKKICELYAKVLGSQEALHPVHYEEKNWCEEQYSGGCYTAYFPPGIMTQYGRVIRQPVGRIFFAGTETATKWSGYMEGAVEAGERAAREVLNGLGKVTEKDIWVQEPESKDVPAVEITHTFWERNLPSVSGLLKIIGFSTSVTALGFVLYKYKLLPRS

[…]. M2 = […]. M2 (Homo sapiens, UniProt P08172); assay: biochemical; settings: read-out: […]. M2 percent activity or inhibition compared to the assay reference
[…]. M2, sequence (P08172 whole entry): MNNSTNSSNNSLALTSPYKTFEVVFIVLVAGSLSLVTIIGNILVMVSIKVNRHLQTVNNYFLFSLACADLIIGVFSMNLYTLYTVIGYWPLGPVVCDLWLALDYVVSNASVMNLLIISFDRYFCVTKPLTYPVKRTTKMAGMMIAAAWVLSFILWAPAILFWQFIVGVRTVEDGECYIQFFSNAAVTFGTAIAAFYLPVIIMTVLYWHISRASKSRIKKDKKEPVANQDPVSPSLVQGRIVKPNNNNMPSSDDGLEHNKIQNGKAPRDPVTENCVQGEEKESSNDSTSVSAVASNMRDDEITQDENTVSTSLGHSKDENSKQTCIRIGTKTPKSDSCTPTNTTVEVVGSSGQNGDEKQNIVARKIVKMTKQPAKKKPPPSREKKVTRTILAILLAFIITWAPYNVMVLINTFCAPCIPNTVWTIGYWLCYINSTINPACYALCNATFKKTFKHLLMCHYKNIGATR

C[…]. CB1 = C[…]. CB1 (Homo sapiens, UniProt P21554); assay: biochemical; settings: read-out: C[…]. CB1 percent activity or inhibition compared to the assay reference
HISTAMINE H2 REC. = HISTAMINE H2 REC. (Homo sapiens, UniProt P25021); assay: biochemical; settings: read-out: HISTAMINE H2 REC. percent activity or inhibition compared to the assay reference
ZAP70 = ZAP70 (Homo sapiens, UniProt P43403); assay: biochemical; settings: read-out: ZAP70 percent activity or inhibition compared to the assay reference
CYCLO OXYGENASE 2 = CYCLO OXYGENASE 2 (Homo sapiens, UniProt P35354); assay: biochemical; settings: read-out: CYCLO OXYGENASE 2 percent activity or inhibition compared to the assay reference
NORE[…]. = NORE[…]. (Homo sapiens, UniProt P23975); assay: biochemical; settings: read-out: NORE[…]. percent activity or inhibition compared to the assay reference
DOPAMINE D2 REC. (short) = DOPAMINE D2 REC. (short) (Homo sapiens, UniProt P14416); assay: biochemical; settings: read-out: DOPAMINE D2 REC. (short) percent activity or inhibition compared to the assay reference
DOPAMINE D2 REC. (short), sequence (P14416 1-414 isoform P14416-2): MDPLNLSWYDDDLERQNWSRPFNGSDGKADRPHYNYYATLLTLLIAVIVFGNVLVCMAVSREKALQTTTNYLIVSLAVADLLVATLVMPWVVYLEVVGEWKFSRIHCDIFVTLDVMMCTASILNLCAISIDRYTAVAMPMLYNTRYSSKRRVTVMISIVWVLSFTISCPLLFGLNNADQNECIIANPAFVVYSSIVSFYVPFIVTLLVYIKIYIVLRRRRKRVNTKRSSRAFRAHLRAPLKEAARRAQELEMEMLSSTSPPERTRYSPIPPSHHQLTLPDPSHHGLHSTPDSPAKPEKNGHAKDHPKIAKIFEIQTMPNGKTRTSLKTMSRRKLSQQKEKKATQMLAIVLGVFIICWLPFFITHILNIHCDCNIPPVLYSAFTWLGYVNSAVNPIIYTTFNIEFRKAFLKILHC

Row | SMILES | GLYCINE REC. percent activity or inhibition compared to the assay reference (GLYCINE REC.) [%] | GABA-A (BENZ[…]) percent activity or inhibition compared to the assay reference (GABA-A (BENZ[…])) [%] | inhibition at 10 µM (μ OPIOID REC.) [%] | inhibition at 10 µM (SEROTONIN TRANSPORTER) [%] | inhibition at 10 µM (α2A-ADRENOCEPTOR) [%] | inhibition at 10 µM (PROSTAGLANDIN F REC.) [%] | inhibition at 10 µM (κ OPIOID REC.) [%] | inhibition at 10 µM (α1A-ADRENOCEPTOR) [%] | inhibition at 10 µM (CHOLECYSTOKININ 1 REC.) [%] | inhibition at 10 µM (β1-ADRENOCEPTOR) [%] | inhibition at 10 µM (5HT3) [%] | inhibition at 10 µM (HIV-1 PROTEASE) [%] | inhibition at 10 µM (HISTAMINE H1 REC.) [%] | inhibition at 10 µM (PHOSPHODIESTERASE 4D2) [%] | microsomal CLint at 1 µM [2] [µL/min/mg] | inhibition at 10 µM (DOPAMINE D1 REC.) [%] | inhibition at 10 µM (XANTHINE OXIDASE) [%] | inhibition at 10 µM (ESTROGEN REC. α) [%] | inhibition at 10 µM (MONOAMINE OXIDASE-A) [%] | inhibition at 10 µM ([…]. M2) [%] | further results
1 | O=C(c1ccc2nc(-c3cnccc3C3(C4CCC4)CC3)oc2c1)N1CCN(c2nc3nc(Cl)ccc3o2)CC1 [Compound 27] | 3 | 9 | – | – | – | – | – | – | – | – | – | – | – | – | – | – | – | – | – | – | P-gp (ABCB1 (MDR1, human P-gp); apparent permeability, apical-to-basolateral, LLC-PK1 cells with human P-gp): 7.1 ×10⁻⁶ cm/s; PAMPA permeability ([1]; donor buffer pH 6.0, 18-hour incubation): 0.9 10^-6 cm/s; Solubility in 0.05M PO4- (Solubility in 0.05M PO4-): < 0.6 µg/mL
2 | O=C(c1ccc2nc(-c3cccnc3)oc2c1)N1CCN(c2nc3ccccc3c(=O)[nH]2)CC1 [Compound 17] | – | – | 48 | -5 | 7 | -2 | 15 | 13 | -12 | 4 | 0 | 11 | 13 | 21 | 10 | 3 | 2 | 0 | 7 | 27 | inhibition at 10 µM (C[…]. CB1): 2%; Papp A→B (ABCB1 (MDR1, human P-gp)): 11.7 ×10⁻⁶ cm/s; Papp at 18 h, 150 µM [1]: 4 ×10⁻⁶ cm/s; inhibition at 10 µM (HISTAMINE H2 REC.): 1%; inhibition at 10 µM (ZAP70): -2%; inhibition at 10 µM (CYCLO OXYGENASE 2): 20%; inhibition at 10 µM (NORE[…].): 15%; solubility (Solubility in 0.05M PO4-): 4.2 µg/mL (≈ 9.28 µM); inhibition at 10 µM (DOPAMINE D2 REC. (short)): -10%
3 | O=C(c1ccc2nc(-c3cnccc3C3CCCC3)oc2c1)N1CCN(c2nc3nc(Cl)ccc3o2)CC1 [Compound 23] | 7 | 10 | 21 | 10 | 3 | -3 | 18 | 4 | 9 | 2 | -6 | 31 | 11 | 20 | 415 | -1 | 6 | 5 | 2 | 40 | inhibition at 10 µM (C[…]. CB1): 2%; Papp A→B (ABCB1 (MDR1, human P-gp)): 8.9 ×10⁻⁶ cm/s; Papp at 18 h, 150 µM [1]: 4 ×10⁻⁶ cm/s; inhibition at 10 µM (HISTAMINE H2 REC.): -1%; inhibition at 10 µM (ZAP70): -27%; inhibition at 10 µM (CYCLO OXYGENASE 2): 4%; inhibition at 10 µM (NORE[…].): 15%; solubility (Solubility in 0.05M PO4-): < 0.05 µg/mL; inhibition at 10 µM (DOPAMINE D2 REC. (short)): -15%
4 | O=C(c1ccc2nc(-c3cnccc3C3CCCC3)oc2c1)N1CC2(CC(n3cnc(C4CC4)n3)C2)C1 [Compound 29] | -2 | -1 | 30 | -11 | 18 | 21 | 32 | 50 | 8 | 7 | -2 | 31 | 18 | 65 | 425 | 7 | 3 | -3 | 0 | 33 | inhibition at 10 µM (C[…]. CB1): 9%; Papp A→B (ABCB1 (MDR1, human P-gp)): 13.2 ×10⁻⁶ cm/s; Papp at 18 h, 150 µM [1]: 5.9 ×10⁻⁶ cm/s; cell permeability ([1]; in words, SI2.2, Fig. S1 (PAMPA vs LipE)): potent cell permeability; inhibition at 10 µM (HISTAMINE H2 REC.): 11%; inhibition at 10 µM (ZAP70): 5%; inhibition at 10 µM (CYCLO OXYGENASE 2): 23%; inhibition at 10 µM (NORE[…].): 22%; solubility (Solubility in 0.05M PO4-): < 0.05 µg/mL; inhibition at 10 µM (DOPAMINE D2 REC. (short)): 4%
